Earlier results as cited in the PKSmart pharmacokinetics tables (Seal et al. 2025).

Legend:
[1] = Lombardo, Berellini, Obach 2018, Drug Metab Dispos 46:1466, doi 10.1124/dmd.118.082966; details: human; for MRT / Vd / clearance / half-life: in vivo, iv; for fraction unbound: plasma
[2] = Lombardo et al. 2013, J Clin Pharmacol 53:178, doi 10.1177/0091270012440282; details: for Vd / clearance: in vivo, iv; for fraction unbound: plasma

| SMILES | MRT [1] | Vd [1] | clearance [1] | half-life [1] | fraction unbound [1] | Vd ([2]; dog) | clearance ([2]; dog) | fraction unbound ([2]; dog) | Vd ([2]; monkey) | clearance ([2]; monkey) | fraction unbound ([2]; monkey) | Vd ([2]; rat) | clearance ([2]; rat) | fraction unbound ([2]; rat) |
| --- | --- | --- | --- | --- | --- | --- | --- | --- | --- | --- | --- | --- | --- | --- |
| Nc1nc(C(=NO)C(=O)NC2C(=O)N3C(C(=O)O)=C(C=C4CCN(CC(F)(F)F)C4=O)CS[C@H]23)cs1 (some centres undefined) | 4.8 h | 0.11 L/kg | 0.38 mL/min/kg | 3.8 h | 0.043 | 0.18 L/kg | 2.7 mL/min/kg | 0.16 | 0.12 L/kg | 0.77 mL/min/kg | 0.05 | 0.15 L/kg | 0.95 mL/min/kg | 0.025 |
| C[C@]12CC[C@@H]3c4ccc(OC(=O)N(CCCl)CCCl)cc4CC[C@H]3[C@@H]1CC[C@@H]2OP(=O)(O)O | 2.1 h | 0.12 L/kg | 0.94 mL/min/kg | 2.4 h | 0.5 | 0.16 L/kg | 2 mL/min/kg |  |  |  |  |  |  |  |
| O=C(NCC1CCCCN1)c1cc(OCC(F)(F)F)ccc1OCC(F)(F)F (centres undefined) | 21 h | 6.1 L/kg |  | 12 h |  | 1.1 L/kg |  | 0.3 |  |  |  | 6.9 L/kg |  |  |
| C[C@]12C=CC(=O)C=C1CC[C@@H]1C2C(=O)C[C@@]2(C)[C@H]1CC[C@]2(O)C(=O)CO (some centres undefined) | 3.8 h | 0.57 L/kg |  | 2.9 h |  | 2.3 L/kg | 24.9 mL/min/kg | 0.5 | 1.7 L/kg | 9.8 mL/min/kg | 0.261 | 1.3 L/kg | 155 mL/min/kg | 0.41 |
| CC(C)NCC(O)COc1cccc2ccccc12 (centres undefined) | 4.3 h | 3.1 L/kg | 12 mL/min/kg | 3.4 h |  | 6.79 L/kg | 51.8 mL/min/kg | 0.04 | 2.28 L/kg | 20.8 mL/min/kg | 0.03 | 4.58 L/kg | 94.3 mL/min/kg | 0.1 |
| CCCC(C)C1(CC)C(=O)NC(=O)NC1=O (centres undefined) | 32 h | 0.91 L/kg | 0.47 mL/min/kg | 22 h | 0.39 | 1.06 L/kg | 1.3 mL/min/kg |  |  |  |  | 1.64 L/kg | 8.4 mL/min/kg | 0.5 |
| CON=C(C(=O)NC1C(=O)N2C(C(=O)O)=C(COC(C)=O)CS[C@H]12)c1csc(N)n1 (some centres undefined) | 1.2 h | 0.19 L/kg | 2.7 mL/min/kg | 1.2 h | 0.6 | 0.5 L/kg | 8.13 mL/min/kg |  |  |  |  |  |  | 0.59 |
| CCc1nn(CCCN2CCN(c3cccc(Cl)c3)CC2)c(=O)n1CCOc1ccccc1 | 1.1 h | 0.51 L/kg | 7.5 mL/min/kg | 1.2 h |  | 3.24 L/kg | 26 mL/min/kg |  |  |  |  |  |  |  |
| COc1cc(NS(C)(=O)=O)ccc1Nc1c2ccccc2nc2ccccc12 | 6.2 h | 1.6 L/kg | 4.3 mL/min/kg | 4.7 h | 0.029 | 2.8 L/kg | 16 mL/min/kg | 0.081 |  |  |  | 4.5 L/kg | 83 mL/min/kg | 0.1 |
| O=C(O)CC(NC(=O)CP(=O)(O)O)C(=O)O (centres undefined) | 4.51 h | 0.33 L/kg | 1.22 mL/min/kg | 4.78 h |  | 0.29 L/kg | 4.1 mL/min/kg |  | 0.2 L/kg | 2.3 mL/min/kg |  | 1.1 L/kg | 17.4 mL/min/kg |  |
| CCCCNC(=O)NS(=O)(=O)c1ccc(C)cc1 | 9.5 h | 0.12 L/kg |  | 7 h |  |  |  |  |  |  |  | 0.13 L/kg | 0.42 mL/min/kg |  |
| CN(C)CCc1c[nH]c2ccc(C[C@H]3COC(=O)N3)cc12 | 4.6 h | 1.8 L/kg | 6.7 mL/min/kg | 3.6 h |  |  |  |  |  |  |  | 3.53 L/kg | 29.4 mL/min/kg |  |
| C[C@@H]1CCC[C@H](C)N1CCCC(O)(c1ccccc1)c1ccccn1 (some centres undefined) | 13 h | 1.4 L/kg | 1.8 mL/min/kg | 8.4 h |  | 2.1 L/kg | 8.3 mL/min/kg | 0.492 | 0.87 L/kg | 4.92 mL/min/kg | 0.42 | 2.6 L/kg | 62 mL/min/kg | 0.49 |
| COCCOC(=O)C1=C(C)NC(C)=C(C(=O)OC(C)C)C1c1cccc([N+](=O)[O-])c1 (centres undefined) | 1.2 h | 1.1 L/kg |  | 1.3 h |  | 3 L/kg | 18 mL/min/kg | 0.03 | 3.62 L/kg | 33 mL/min/kg | 0.095 | 5.5 L/kg | 19.6 mL/min/kg | 0.03 |
| CNC1(c2ccccc2Cl)CCCCC1=O (centres undefined) | 2.5 h | 2.9 L/kg | 19 mL/min/kg | 2.8 h | 0.47 | 2.5 L/kg | 32.2 mL/min/kg | 0.47 |  |  |  | 3.68 L/kg | 115 mL/min/kg |  |
| CNS(=O)(=O)Cc1ccc2[nH]cc(CCN(C)C)c2c1 | 1.5 h | 1.7 L/kg | 19 mL/min/kg | 1.7 h |  | 1.74 L/kg | 13.9 mL/min/kg | 0.86 |  |  |  | 1.15 L/kg | 28 mL/min/kg | 0.85 |
| C=c1cc(C)[nH]c1=Cc1c(O)[nH]c2ccccc12 | 1.17 h | 0.98 L/kg | 14 mL/min/kg | 0.83 h | 0.008 | 1.4 L/kg | 52 mL/min/kg |  | 1.63 L/kg | 27.7 mL/min/kg |  | 1.6 L/kg | 45 mL/min/kg | 0.007 |
| COc1cc([C@@H]2c3cc4c(cc3[C@@H](O[C@@H]3O[C@@H]5CO[C@@H](C)O[C@H]5[C@H](O)[C@H]3O)[C@H]3COC(=O)C23)OCO4)cc(OC)c1O (some centres undefined) | 6 h | 0.18 L/kg |  | 5.7 h |  | 1.4 L/kg | 13 mL/min/kg | 0.63 | 0.16 L/kg | 1.5 mL/min/kg | 0.0051 | 0.58 L/kg | 23 mL/min/kg | 0.43 |
| Nc1ncnc2c1ncn2CCOCP(=O)(O)O | 1.9 h | 0.42 L/kg | 3.7 mL/min/kg | 1.6 h |  | 1.3 L/kg | 5.3 mL/min/kg |  | 0.81 L/kg | 16 mL/min/kg |  | 1.6 L/kg | 22 mL/min/kg |  |
| CS(=O)(=O)OCCCCOS(C)(=O)=O | 3.8 h | 0.55 L/kg | 2.4 mL/min/kg | 3.4 h |  | 1 L/kg | 19.2 mL/min/kg |  |  |  |  | 0.68 L/kg | 5 mL/min/kg | 0.91 |
| CCCN1CCCCC1C(=O)Nc1c(C)cccc1C (centres undefined) | 2.3 h | 0.75 L/kg | 5.5 mL/min/kg | 2.2 h | 0.06 | 1.42 L/kg | 30 mL/min/kg |  |  |  |  |  |  |  |
| C[C@H]1[C@H](OC(=O)CCC(=O)O)O[C@@H]2O[C@@]3(C)CC[C@H]4[C@H](C)CC[C@@H]1[C@@]24OO3 | 0.32 h |  | 1070 mL/min/kg | 0.22 h | 0.25 |  | 44 mL/min/kg | 0.181 |  |  |  |  | 212 mL/min/kg | 0.22 |
| Cc1ccsc1C(=CCCN1CCCC(C(=O)O)C1)c1sccc1C (centres undefined) | 12 h | 1.1 L/kg | 1.6 mL/min/kg | 10 h |  |  |  |  |  |  |  | 2.05 L/kg | 89 mL/min/kg |  |
| Cc1nnc2n1-c1sc(Br)cc1C(c1ccccc1Cl)=NC2 | 6 h | 0.75 L/kg | 2 mL/min/kg | 4.8 h | 0.092 | 6.1 L/kg | 11 mL/min/kg |  | 6.5 L/kg | 13 mL/min/kg |  | 3 L/kg | 23 mL/min/kg | 0.22 |
| CO[C@@]1(NC(=O)C(C(=O)O)c2ccc(O)cc2)C(=O)N2C(C(=O)O)=C(CSc3nnnn3C)CO[C@@H]21 (some centres undefined) | 3.9 h | 0.17 L/kg | 0.72 mL/min/kg | 2.9 h | 0.39 | 0.2 L/kg | 2.2 mL/min/kg | 0.66 | 0.19 L/kg | 2.3 mL/min/kg | 1 | 0.25 L/kg | 9.1 mL/min/kg | 1 |
| CC1=C(C(=O)O)N2C(=O)C(NC(=O)C(N)C3=CCC=CC3)[C@H]2SC1 (some centres undefined) | 1.1 h | 0.21 L/kg | 3.3 mL/min/kg | 0.85 h |  |  |  |  |  |  |  | 1.1 L/kg | 21.7 mL/min/kg |  |
